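In this assay, cells in 96-well plates receive the compound at five concentrations for 48 hours. Endpoints are linearly interpolated between the surrounding concentrations. TGI marks complete inhibition of growth.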
Columns and labels:
Experiment in all cases: inhibition of tumour cell growth, NCI panel, 48 h
LOX IMVI melanoma = test system: LOX IMVI melanoma
SF-268 CNS = test system: SF-268 CNS
M14 melanoma = test system: M14 melanoma
SF-295 CNS = test system: SF-295 CNS
SW-620 colon = test system: SW-620 colon
786-0 renal = test system: 786-0 renal
MDA-MB-231 breast = test system: MDA-MB-231 breast
K-562 leukemia = test system: K-562 leukemia
HT29 colon = test system: HT29 colon
MOLT-4 leukemia = test system: MOLT-4 leukemia
A549 NSCLC = test system: A549 NSCLC
HOP-92 NSCLC = test system: HOP-92 NSCLC
OVCAR-4 ovarian = test system: OVCAR-4 ovarian
HL-60(TB) leukemia = test system: HL-60(TB) leukemia
IGROV1 ovarian = test system: IGROV1 ovarian
CAKI-1 renal = test system: CAKI-1 renal
UO-31 renal = test system: UO-31 renal
SK-MEL-2 melanoma = test system: SK-MEL-2 melanoma
SN12C renal = test system: SN12C renal
HCT-116 colon = test system: HCT-116 colon

Row | Compound | TGI (LOX IMVI melanoma) [µM] | TGI (SF-268 CNS) [µM] | TGI (M14 melanoma) [µM] | TGI (SF-295 CNS) [µM] | TGI (SW-620 colon) [µM] | TGI (786-0 renal) [µM] | TGI (MDA-MB-231 breast) [µM] | TGI (K-562 leukemia) [µM] | TGI (HT29 colon) [µM] | TGI (MOLT-4 leukemia) [µM] | TGI (A549 NSCLC) [µM] | TGI (HOP-92 NSCLC) [µM] | TGI (OVCAR-4 ovarian) [µM] | TGI (HL-60(TB) leukemia) [µM] | TGI (IGROV1 ovarian) [µM] | TGI (CAKI-1 renal) [µM] | TGI (UO-31 renal) [µM] | TGI (SK-MEL-2 melanoma) [µM] | TGI (SN12C renal) [µM] | TGI (HCT-116 colon) [µM]
1 | COc1ccc(NC(=O)C(C#N)=C(SC)SC)cc1 | > 100 | > 100 | > 100 | > 100 | > 100 | > 100 | > 100 | > 100 | > 100 | > 100 | > 100 | 55.6 | > 100 | > 100 | > 100 | > 100 | > 100 | > 100 | > 100 | > 100
2 | COC(=O)c1sc2c(=O)c(C(=O)OC)c(C(=O)OC)sc2c(=O)c1C(=O)OC | > 100 | > 100 | > 100 | > 100 | > 100 | > 100 | > 100 | > 100 | > 100 | > 100 | > 100 | > 100 | > 100 | > 100 | > 100 | > 100 | > 100 | > 100 | > 100 | > 100
3 | CCOC(=O)[C@@H](NC(=O)OC(C)(C)C)[C@@H](O)C(=O)OCC | > 100 | > 100 | > 100 | > 100 | > 100 | > 100 | > 100 | > 100 | > 100 | > 100 | > 100 | > 100 | > 100 | > 100 | > 100 | > 100 | > 100 | > 100 | > 100 | > 100
4 | Cc1ccc(N=C2OP(=O)(Nc3ccc(C)cc3)Oc3ccccc32)cc1 (stereo not given) | > 100 | > 100 | > 100 | > 100 | > 100 | > 100 | > 100 | > 100 | > 100 | > 100 | > 100 | 90.5 | > 100 | > 100 | > 100 | > 100 | > 100 | > 100 | > 100 | > 100
5 | c1cc(C2=NCCO2)c2ccsc2c1 | > 100 | > 100 | > 100 | > 100 | > 100 | > 100 | > 100 | > 100 | > 100 | > 100 | > 100 | > 100 | > 100 | > 100 | > 100 | > 100 | > 100 | > 100 | > 100 | > 100
6 | Cc1c(C(=O)Nc2ccccc2)nnn1-c1ccnc2cc(C(F)(F)F)ccc12 | 78.1 | > 100 | > 100 | > 100 | > 100 | > 100 | > 100 | > 100 | > 100 | 79.6 | > 100 | 95.4 | > 100 | 77.7 | > 100 | > 100 | > 100 | > 100 | > 100 | > 100
7 | O=C(Nc1ccccc1)c1cc(S(=O)(=O)N2CCNC2=O)c(S)cc1Cl | > 100 | > 100 | > 100 | > 100 | > 100 | > 100 | > 100 | > 100 | > 100 | > 100 | > 100 | > 100 | > 100 | > 100 | > 100 | > 100 | > 100 | > 100 | > 100 | > 100
8 | COc1ccc(N/N=C/C2=CC(C)(C)C(C#N)(C#N)C(O)=C2C#N)cc1 | > 100 | > 100 | > 100 | > 100 | > 100 | > 100 | > 100 | > 100 | > 100 | > 100 | > 100 | 75.6 | > 100 | > 100 | > 100 | > 100 | > 100 | > 100 | > 100 | > 100
9 | CCO[C@H]1O[C@@H]2OC3(C)CCC4[C@H](C)CCC([C@H]1C)[C@]42OO3 (stereo not given in full) | > 100 | > 100 | > 100 | > 100 | > 100 | > 100 | > 100 | > 100 | > 100 | > 100 | > 100 | > 100 | > 100 | 13.2 | > 100 | > 100 | > 100 | > 100 | > 100 | > 100
10 | O=C1/C(=C/c2ccccc2)CCc2ccc([N+](=O)[O-])cc21 | > 100 | > 100 | > 96.4 | > 100 | > 100 | > 80.3 | > 100 | > 100 | > 100 | > 100 | > 100 | > 100 | > 100 | > 100 | > 100 | > 100 | > 100 | 38.3 | > 100 | > 100
